Results: paper PMC3443605 (Journal of medicinal chemistry, 2012)
Entries after “also recorded” stand apart in the source; their conditions may differ.

What was measured:
D2L receptors [1] = biological target: T1, D2L receptors (Homo sapiens, UniProt P14416); experiment: cell-based; assay type: cell-based
Target sequence in this assay (P14416 whole entry, added parts left off): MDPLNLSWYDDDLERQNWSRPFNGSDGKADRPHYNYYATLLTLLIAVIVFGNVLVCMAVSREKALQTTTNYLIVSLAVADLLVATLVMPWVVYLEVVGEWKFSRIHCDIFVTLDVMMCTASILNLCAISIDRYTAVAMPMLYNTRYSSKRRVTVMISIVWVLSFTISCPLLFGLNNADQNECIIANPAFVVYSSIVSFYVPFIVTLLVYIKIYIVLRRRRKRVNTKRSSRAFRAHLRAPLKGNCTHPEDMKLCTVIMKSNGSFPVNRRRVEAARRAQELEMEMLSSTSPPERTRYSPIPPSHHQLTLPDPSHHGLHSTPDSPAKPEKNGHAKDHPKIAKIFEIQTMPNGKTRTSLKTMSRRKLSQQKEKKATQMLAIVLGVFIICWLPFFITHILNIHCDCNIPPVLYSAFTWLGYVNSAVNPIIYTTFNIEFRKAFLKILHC
Target sequence in this assay (P32121 whole entry partner): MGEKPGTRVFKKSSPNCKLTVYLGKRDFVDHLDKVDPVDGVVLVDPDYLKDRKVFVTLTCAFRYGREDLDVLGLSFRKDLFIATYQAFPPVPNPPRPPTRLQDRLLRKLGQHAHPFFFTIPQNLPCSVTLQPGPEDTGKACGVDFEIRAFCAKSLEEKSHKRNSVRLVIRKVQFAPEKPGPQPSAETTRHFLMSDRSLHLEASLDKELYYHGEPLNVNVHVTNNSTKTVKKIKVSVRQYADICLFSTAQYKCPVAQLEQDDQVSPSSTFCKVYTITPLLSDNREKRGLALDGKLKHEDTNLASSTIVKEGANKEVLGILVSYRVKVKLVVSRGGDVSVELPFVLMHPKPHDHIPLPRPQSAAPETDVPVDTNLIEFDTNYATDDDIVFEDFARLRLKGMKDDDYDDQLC

D2L receptors [2] = biological target: T1, D2L receptors; experiment: D2R radioligand binding assay
Target sequence in this assay (P14416 whole entry): as the sequence (P14416 whole entry, added parts left off) above

[3] = cited from earlier work
[4] = system: β-arrestin-2 knockout mice; experiment: PCP-induced hyperlocomotion in β-arrestin-2 knockout mice; assay type: in vivo, mouse; conditions: 2 mg/kg i.p., 30 min before 6 mg/kg PCP i.p.
wild-type mice [5] = experiment: PCP-induced hyperlocomotion in wild-type mice; assay type: in vivo, mouse; conditions: 2 mg/kg i.p., 30 min before 6 mg/kg PCP i.p.
D1 receptor = D1 receptor (Homo sapiens, UniProt P21728); experiment: PDSP radioligand binding assay, D1; conditions: Table S1
Chain of D1 receptor (P21728 whole entry): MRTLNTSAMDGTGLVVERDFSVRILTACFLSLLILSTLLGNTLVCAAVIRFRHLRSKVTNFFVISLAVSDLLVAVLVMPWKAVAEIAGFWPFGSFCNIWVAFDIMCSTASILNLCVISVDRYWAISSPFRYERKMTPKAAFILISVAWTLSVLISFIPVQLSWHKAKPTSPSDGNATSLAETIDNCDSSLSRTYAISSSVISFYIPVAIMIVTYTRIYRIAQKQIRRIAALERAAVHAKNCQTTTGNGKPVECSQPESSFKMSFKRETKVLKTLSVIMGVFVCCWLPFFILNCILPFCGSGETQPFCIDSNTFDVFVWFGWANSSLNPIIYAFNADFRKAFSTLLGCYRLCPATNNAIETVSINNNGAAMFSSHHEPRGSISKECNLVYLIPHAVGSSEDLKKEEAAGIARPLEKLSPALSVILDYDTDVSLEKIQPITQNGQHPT

D5 receptor = D5 receptor (Homo sapiens, UniProt P21918); experiment: PDSP radioligand binding assay, D5; conditions: Table S1
Chain of D5 receptor (P21918 whole entry): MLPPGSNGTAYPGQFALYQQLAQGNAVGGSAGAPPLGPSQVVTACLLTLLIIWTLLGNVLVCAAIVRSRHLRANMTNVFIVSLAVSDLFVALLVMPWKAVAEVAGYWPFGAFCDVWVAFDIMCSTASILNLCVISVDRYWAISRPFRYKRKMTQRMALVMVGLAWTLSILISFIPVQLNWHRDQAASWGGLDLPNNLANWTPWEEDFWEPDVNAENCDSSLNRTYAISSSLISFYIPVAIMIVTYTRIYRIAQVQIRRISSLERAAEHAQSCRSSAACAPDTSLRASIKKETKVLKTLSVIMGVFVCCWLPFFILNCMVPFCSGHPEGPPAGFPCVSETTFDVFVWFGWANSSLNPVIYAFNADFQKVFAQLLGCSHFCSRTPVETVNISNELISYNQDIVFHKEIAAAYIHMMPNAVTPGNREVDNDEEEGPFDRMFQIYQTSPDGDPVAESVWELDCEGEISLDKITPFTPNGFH

D3 receptor = D3 receptor (Homo sapiens, UniProt P35462); experiment: PDSP radioligand binding assay, D3; conditions: Table S1
Chain of D3 receptor (P35462 whole entry): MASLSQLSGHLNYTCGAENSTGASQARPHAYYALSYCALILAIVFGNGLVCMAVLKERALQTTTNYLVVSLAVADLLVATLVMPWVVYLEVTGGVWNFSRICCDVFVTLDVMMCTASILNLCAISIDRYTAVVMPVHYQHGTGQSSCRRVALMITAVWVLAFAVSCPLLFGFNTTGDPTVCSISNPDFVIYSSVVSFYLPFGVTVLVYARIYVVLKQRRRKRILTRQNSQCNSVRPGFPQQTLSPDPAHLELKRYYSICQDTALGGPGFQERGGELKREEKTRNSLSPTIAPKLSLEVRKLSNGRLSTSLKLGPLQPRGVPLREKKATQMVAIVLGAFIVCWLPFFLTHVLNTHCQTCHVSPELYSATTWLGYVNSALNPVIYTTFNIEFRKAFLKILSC

D4 receptor = biological target: T2, D4 receptor (Homo sapiens, UniProt P21917); experiment: PDSP radioligand binding assay, D4; conditions: Table S1
T2 sequence (P21917 1-419): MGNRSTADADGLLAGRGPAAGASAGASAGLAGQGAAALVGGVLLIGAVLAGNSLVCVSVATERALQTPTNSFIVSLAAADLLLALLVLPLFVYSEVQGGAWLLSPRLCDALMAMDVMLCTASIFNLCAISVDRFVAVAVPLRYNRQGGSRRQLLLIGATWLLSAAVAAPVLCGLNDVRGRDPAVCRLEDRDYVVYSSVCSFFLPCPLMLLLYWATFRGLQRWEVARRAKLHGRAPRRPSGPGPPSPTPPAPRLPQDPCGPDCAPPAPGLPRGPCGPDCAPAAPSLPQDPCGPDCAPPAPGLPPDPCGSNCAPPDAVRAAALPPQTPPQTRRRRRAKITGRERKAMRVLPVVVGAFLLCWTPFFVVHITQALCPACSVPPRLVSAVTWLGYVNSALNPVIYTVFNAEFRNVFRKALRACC

wild-type mice [6] = conditions: cited from earlier work
wild-type mice [7] = conditions: cited from earlier work; remark: listed apart in the source
[8] = system: β-arrestin-2 knockout mice; conditions: cited from earlier work

## O=C1CCc2ccc(OC[C@@H]3C[C@H]3CN3CCN(c4cccc(Cl)c4Cl)CC3)cc2N1 (relative stereo) [Compound 24, Trans-7-((2-((4-(2,3-dichlorophenyl)piperazin-1-yl)methyl)cyclopropyl)methoxy)-3,4-dihydroquinolin-2(1H)-one]
D2L receptors [1]
  EC50: 1.26 µM
D2L receptors [2]
  Ki: 0.235 µM

## O=C1CCc2ccc(OCCCCN3CCN(c4cccc(Cl)c4Cl)CC3)cc2N1 [Compound 1, aripiprazole]
[3]
  oral bioavailability: high

## CC(C)Oc1ccccc1N1CCN(CCCCOc2ccc3c(c2)NC(=O)CC3)CC1 [Compound 4, 7-(4-(4-(2-Isopropoxyphenyl)piperazin-1-yl)butoxy)-3,4-dihydroquinolin-2(1H)-one]
D2L receptors [1]
  potency at activating β-arrestin versus Gi signaling: about 10 fold

## O=C1CCc2ccc(OCCCCN3CCCN(c4cccc(Cl)c4Cl)CC3)cc2N1 [Compound 19]
[4]
  antipsychotic-like activity (PCP-induced hyperlocomotion), β-arrestin-2 knockout mice: neither compound affected; also recorded: completely abolished
wild-type mice [5]
  effect on PCP-induced hyperlocomotion, wild-type mice: markedly inhibited
D1 receptor
  binding affinity to D1 receptor: low affinities
D5 receptor
  binding affinity to D5 receptor: low affinities

## Clc1cccc(C2CCN(CCCCOc3ccc4scnc4c3)CC2)c1Cl [Compound 35, 5-(4-(4-(2,3-Dichlorophenyl)piperidin-1-yl)butoxy)benzo[d]thiazole]
[4]
  antipsychotic-like activity (PCP-induced hyperlocomotion), β-arrestin-2 knockout mice: neither compound affected
wild-type mice [5]
  effect on PCP-induced hyperlocomotion, wild-type mice: significantly reduced
D3 receptor
  binding affinity to D3 receptor: high affinities
D1 receptor
  binding affinity to D1 receptor: low affinities
D5 receptor
  binding affinity to D5 receptor: low affinities
D4 receptor
  binding affinity to D4 receptor: high affinities
D2L receptors [2]; Table S1
  binding affinity to D2 receptor: high affinities

## Clc1cccc(C2CCN(CCCOc3ccc4scnc4c3)CC2)c1Cl [Compound 36]
wild-type mice [6]
  catalepsy in wild-type mice: did not induce catalepsy
wild-type mice [7]
  antipsychotic drug-like activities in wild-type mice: robust
[8]
  antipsychotic drug-like activities in β-arrestin-2 knockout mice: significantly attenuated or completely abolished

## O=C1CCc2ccc(OCCCCN3CCCN(c4cccc(Cl)c4Cl)CC3)nc2N1 [Compound 44]
wild-type mice [6]
  catalepsy in wild-type mice: did not induce catalepsy
wild-type mice [7]
  antipsychotic drug-like activities in wild-type mice: robust
[8]
  antipsychotic drug-like activities in β-arrestin-2 knockout mice: significantly attenuated or completely abolished
